According to patent publication US9387261B2, “Immunoconjugates targeting CD138 and uses thereof” (priority 2007, dated 2016):
“Also recorded” adds a separate entry of the source.

Key:
[1] = higher; cited from earlier work
[2] = tested on: MOLP-8 human multiple myeloma xenografts; experiment: MOLP-8 xenograft mouse experiments A, Part I (single bolus i.v. injection); format: in vivo, CB.17 SCID mice; details: for effect on tumor growth compared with PBS-treated animals: single i.v. bolus, 250 μg/kg maytansinoid (nBT062 antibody […])
Protocol: In these mice, subcutaneous tumors were established (female CB.17 SCID mice) by inoculation with MOLP-8 cell suspensions. Treatment with a single bolus intravenous injection was conducted when tumor volumes reached an average 113 mm^3. Changes in tumor volume and body weight were monitored twice per week.
Female CB.17 SCID mice, five weeks old, were obtained from Charles River Laboratories.
MOLP-8, a human multiple myeloma cell line, was supplied from ATCC.
Each mouse was inoculated with 1×10^7 MOLP-8 cells subcutaneously into the area under the right shoulder. The total volume was 0.2 ml per mouse, in which the ratio of serum-free medium to matrigel (BD Bioscience, Bedford, Mass.) was 1/1 (v/v). Prior to treatment, the xenograft tumors were monitored daily and were allowed to become established.
Eleven days after tumor cell inoculation, 42 mice were selected based on tumor volumes and body weights. […] The forty-two mice were randomly divided into seven groups (A-G) of six animals each based on tumor volume.
Each of six mice in Group A received 200 μl of PBS as vehicle control.
All agents were intravenously administered as a single bolus injection through a lateral tail vein with a 1 ml syringe fitted with a 27 gauge, ½ inch needle.

MOLP-8 tumor xenografts = experiment: Bulky MOLP-8 tumor model, Part II / xenograft mouse experiments B (TGD, log cell kill); format: in vivo, SCID mice; details: 450 μg/kg dose; mean time to reach 160 mm^3 minus control
Protocol: In a second set of experiments, MOLP-8 cells (1.5×10^7 cells per mouse), suspended in a 50:50 mixture of serum free media and matrigel were injected subcutaneously in the area under the right shoulder in 100 μl. Tumor volumes reached about 80 mm^3 at day 11 and the mean of the controls was about 750 mm^3 at day 25, post cell inoculation. […] Each mouse in the control group (n=6) received 0.2 ml of sterile PBS administered into the lateral tail vein (i.v.) in a bolus injection. All treatment doses were based on conjugated maytansinoid. […] Mice were randomized into eleven groups (n=6) by tumor volume using the LabCat Program. The tumor volumes ranged from 40.0 to 152.5 mm^3. The mice were dosed based on the individual body weight.
Tumor size was measured twice per week in three dimensions using the LabCat System (Tumor Measurement and Tracking, Innovative Programming Associated, Inc., Princeton, N.J.).
In this set of experiments, eighty-five mice were inoculated with MOLP-8 cells (1.5×10^7 cells/mouse) subcutaneously in the right shoulder. […] Sixty-six SCID mice bearing bulky MOLP-8 tumors with a mean tumor volume of about 80 mm^3 were randomized into eleven treatment groups (n=6).

COc1cc2cc(c1Cl)N(C)C(=O)C[C@H](OC(=O)[C@H](C)N(C)C(C)=O)[C@]1(C)O[C@H]1[C@H](C)[C@@H]1C[C@@](O)(NC(=O)O1)[C@H](OC)/C=C/C=C(\C)C2 [maytansine]
cytotoxicity relative to anti-cancer drugs affecting tubulin polymerization (Vinca alkaloids, taxol) [1]: 200-1000 fold

B-B4-SPP-DM1: conjugate of the murine parental antibody B-B4 with DM1 via SPP linker
effect on tumor growth compared with PBS-treated animals [2]: marked delay in tumor growth | homogeneity of anti-tumor activity in individual mice ([2]; single i.v. dose 250 μg/kg, FIG. 9): more heterogeneously; also recorded: high binding variation

nBT062
effect on tumor growth compared with PBS-treated animals [2]: did not cause any significant inhibition of tumor growth | effect on tumor growth compared with PBS-treated animals ([2]; listed as huBT062): no significant impact on tumor growth

nBT062-DM1: nBT062 conjugate with DM1, linker not stated; TGD of 18 days matches nBT062-SMCC-DM1
TGD (days), tumor growth delay (MOLP-8 tumor xenografts): 18 days
